Assay [1] has as its system MRSA GIM 1.771. As to the kind of experiment: Minimal inhibitory concentration (MIC), 96-well microtiter plates. The class given is cell-based, Staphylococcus aureus. The note with it: around 2 × 10^6 CFU/mL, 37°C, 24 h, 100% growth inhibition by absorbance at 540 nm, triplicate. As for the experimental part: Additionally, the minimal inhibitory concentration (MIC) of pentocin JL-1 against MRSA GIM 1.771 was tested. Overnight culture of MRSA GIM 1.771 with the concentration of around 2 × 10^6 CFU/mL was collected and 50 μL of each was grown in 96 well-microtiter plates (Bio-Rad, USA) with different concentrations of pentocin JL-1, ranging from 50 ng/mL to 15 μg/mL, at 37°C for 24 h. Each concentration was done in triplicate. The MIC represents the bacteriocin concentration at which 100% of growth is inhibited measured by the absorbance at 540 nm.

The test system of assay [2] is MRSA GIM 1.771. As to the kind of experiment: Time-killing kinetics, viable cell counts. Particulars: for instantaneous killing action, log10 reduction: at 0 h, viable cell counts on TSB agar, exponential-phase culture, 37°C. The class given is cell-based, Staphylococcus aureus. As for the experimental part:
(§1) The bacteriostatic or bactericidal mode of action of pentocin JL-1 was tested as described previously by Zhu et al. with some modifications. MRSA GIM 1.771 was cultivated to the exponential phase in 100 mL of TSB culture medium. The lyophilized purified pentocin JL-1 dissolved in 0.05% (w/v) acetic acid was added to the cultures at a final concentration of 1x MIC and the same volume of 0.05% (w/v) acetic acid was added to the aforementioned media as a control. Samples were incubated at 37°C and bacterial suspensions were taken each hour for 24 h, and the absorbance was measured at OD600. In addition, the viable cell counts on TSB agar medium after the addition of 1x MIC, 2x MIC, and 3x MIC of pentocin JL-1 were also quantified every 10 min for 1 h.

Assay [3] deals with MRSA GIM 1.771. Briefly: Growth curve, OD600. Particulars: 1x MIC added after 6 h (exponential phase), TSB, 37°C, 24 h. In kind it is cell-based, Staphylococcus aureus. As for the experimental part:
as §1

The test system of assay [4] is MRSA GIM 1.771 cells. Briefly: Transmembrane pH gradient (ΔpH), BCECF AM fluorescence. The class given is cell-based, Staphylococcus aureus. Particulars: 1x MIC and 2x MIC, compared with 1% Triton X-100, 400 s. As for the experimental part: ΔpH was monitored by the fluorescent pH probe 2′,7′-bis-(2-carboxyethyl)-5-(and-6)-carboxyfluorescein, acetoxymethyl ester (BCECF AM) (Beyotime, China). MRSA GIM 1.771 cells were grown to the exponential phase in 50 mL TSB culture medium, harvested, washed twice with 50 mL 5 mM HEPES buffer at 4°C, and resuspended in 5 mL of the same buffer for incubation on ice for 1 h. Subsequently, the 1 μM BCECF AM pH probe was added and the solution was incubated at 37°C for 1 h in the dark. Then 1 mL of the incubated solution was added to a fluorescence cuvette together with a final concentration of 1x, 2x, and 3x MIC of pentocin JL-1, respectively. Acetic acid (0.05%, w/v) was used as a negative control and 1% (w/v) Triton X-100 was used as a positive control. To the control, an equivalent volume of 3x MIC of pentocin JL-1 was added. The fluorescence intensity was monitored at 50 s intervals for 400 s immediately after mixing at Ex 488 nm and Em 535 nm using an F-4600 spectrofluorometer (Hitachi, Japan).

Assay [5] deals with Multidrug-resistant S. aureus 1. Briefly: Agar-well diffusion test. The class given is cell-based. Particulars: 15 μg/mL, pH 5.5, pork isolate resistant to FOX, TET, mean ± SD, triplicate. As for the experimental part: (§2) The intestinal tracts of C. punctatum (grey carpet shark) were dissected and homogenized in 20 mL saline solution under sterile conditions and were then plated in serial dilutions in deMan, Rogosa, and Sharpe (MRS) medium. The plates were incubated aerobically at 30°C for 24 h. Several colonies were picked at random and incubated again in MRS broth. For screening for bacteriocin-producing strains, the agar-well diffusion test was used to detect antimicrobial activity in cell-free supernatants (filtered through a 0.22 μm Millipore filter) obtained by centrifugation (10,000g, 30 min, 4°C) after 18, 36, 60, and 72 h incubation. The Gram-positive strain MRSA GIM 1.771 and the Gram-negative strain Escherichia coli O157:H7 GIM 1.707 were used as indicator strains. Before the experiments, the indicator strains were grown to 10^6 CFU/mL. Then, 1 mL of the culture was mixed with 100 mL soft agar medium and poured onto individual Petri dishes. Subsequently, 8 mm diameter wells were punched onto the plates, and each well was filled with 100 μL of the cell-free supernatants under sterile conditions. The plates were incubated overnight at their respective optimum temperatures, and the clear zones of inhibition were measured in diameter and indicated the presence of antimicrobial activity. In our study, all bacteria culture media and chemical reagents were supplied by Sigma-Aldrich (USA).
(§3) The agar-well diffusion test as described previously was used to detect the antimicrobial activity of the purified pentocin JL-1 (15 μg/mL, pH 5.5). LAB strains were grown in MRS broth at 30°C for 16 h. Other Gram-positive indicator strains were grown in Tryptone Soy Broth (TSB) medium at 37°C and the Gram-negative indicator strains were grown in Luria-Bertani broth medium at 37°C.

In assay [6] the test system is Lactobacillus casei ATCC393. Briefly: Agar-well diffusion test. The class given is cell-based. The note with it: purified pentocin JL-1 15 μg/mL, pH 5.5, inhibition zone diameter class incl. 8 mm well. As for the experimental part:
as §2, §3

Assay [7] deals with Lactobacillus acidophilus ATCC314. As to the kind of experiment: Agar-well diffusion test. In kind it is cell-based. As for the experimental part: as §2, §3
Assay [8] has as its system Enterococcus faecalis ATCC51575. Briefly: Agar-well diffusion test. The class given is cell-based. As for the experimental part: as §2, §3
Assay [9] relates to Multidrug-resistant S. aureus 6. Briefly: Agar-well diffusion test. In kind it is cell-based. Particulars: 15 μg/mL, pH 5.5, pork isolate resistant to CIP, FOX, C, SXT, TET, GEN, mean ± SD, triplicate. As to the method:
as §2, §3

Assay [10] has as its system Vibrio parahaemolyticus GIM1.306. Briefly: Agar-well diffusion test. The class given is cell-based. As for the experimental part: as §2, §3
The mark [11] stands for this setting: purified pentocin JL-1 15 μg/mL, pH 5.5, inhibition zone diameter class incl. 8 mm well.

“VAKVAR [pentocin JL-1, novel bacteriocin produced by Lactobacillus pentosus JL-1, purified by four-step chromatography, molecular mass 2987.23 Da, cationic and hydrophobic peptide]”: the minimum inhibitory concentration (MIC) in [1] was 7.5 µg/mL. Also, the “instantaneous killing action, log10 reduction” value came to 1.05 log10 in assay [2] (1x MIC), 2.14 log10 in assay [2] (2x MIC) and 2.21 log10 in assay [2] (3x MIC). Moreover, the “mode of action (bacteriostatic or bactericidal)” value in [2] (1x, 2x, 3x MIC, viable counts over 1 h) is listed as “bactericidal”. The “OD600 values after addition” value in [3] is “nearly stable”. Also, the “extent of ΔpH dissipation” value in assay [4] was “incompletely dissipated”. Also, the Inhibitor zone in [5] amounted to 23.8 ± 0.8 mm; in assay [9], 23.7 ± 0.6 mm. Besides, the Antimicrobial activity result in assay [6] was “+++ (+++: 20–25)”; in [7] (setting [11]), “−”; in [8] (setting [11]), “++ (++: 15–19)”; in [10] (setting [11]), “−”. Further, the “inhibitory activity” value in [7] (15 μg/mL, pH 5.5) was “no inhibitory activity”; in [8] (15 μg/mL, pH 5.5), “inhibited”; in [10] (15 μg/mL, pH 5.5), “no inhibitory activity”.
